Calls of active or inactive are those of the source. No cut-off for these calls is given here.
What was measured:
[1] = test system: Staphylococcus aureus; experiment: Antibacterial activity against Staphylococcus aureus ATCC29213 infected in mouse model assessed as reduction in inflammatory factors in skin at 5 to 10 mg/kg, sc measured after 24 hrs by H and E staining based analysis; type: functional, organism-based; conditions: dose 5-10 mg/kg
[2] = Toxicity in KM mouse assessed as histopathological abnormality in spleen upto 40 mg/kg, ip measured for 24 hrs by H and E staining based analysis; type: organism-based; conditions: in vivo
[3] = test system: Staphylococcus aureus; experiment: Antibacterial activity against Staphylococcus aureus ATCC29213 by CLSI based serial dilution method; type: functional
[4] = test system: Staphylococcus aureus; experiment: Antibacterial activity against Staphylococcus aureus ATCC25923 upto 32 ug/ml incubated for 16 to 18 hrs in presence of phosphatidylglycerol; type: functional, organism-based; conditions: dose <= 32.0 µg/ml, time 16-18 hrs
[5] = test system: Staphylococcus aureus; experiment: Antibacterial activity against Staphylococcus aureus ATCC25923 upto 32 ug/ml incubated for 16 to 18 hrs in presence of peptidoglycan; type: functional, organism-based; conditions: dose <= 32.0 µg/ml, time 16-18 hrs
[6] = test system: Escherichia coli; experiment: Bactericidal activity against Escherichia coli ATCC25922 at 8 times MIC incubated for 12 hrs by time-kill assay relative to control; type: functional
[7] = Toxicity in KM mouse assessed as histopathological abnormality in heart upto 40 mg/kg, ip measured for 24 hrs by H and E staining based analysis; type: organism-based; conditions: in vivo
[8] = test system: Staphylococcus aureus; experiment: Antibacterial activity against Staphylococcus aureus ATCC29213 infected in mouse model assessed as uniform smooth skin at 5 to 10 mg/kg, sc measured after 24 hrs; type: functional, organism-based; conditions: dose 5-10 mg/kg
[9] = test system: Staphylococcus aureus; experiment: Antibacterial activity against Staphylococcus aureus ATCC29213 assessed as cell membrane damage at 8 times MIC by NucGreen/EthD-III staining based analysis; type: functional, organism-based
[10] = Toxicity in KM mouse assessed as damage in lung upto 40 mg/kg, ip measured for 24 hrs by H and E staining based analysis; type: organism-based; conditions: in vivo
[11] = test system: Enterococcus faecalis; experiment: Antibacterial activity against Enterococcus faecalis ATCC29212 assessed as leakage of cell contents at 8 times MIC by SEM analysis; type: functional, organism-based
[12] = test system: Enterococcus faecalis; experiment: Antibacterial activity against Enterococcus faecalis ATCC29212 assessed as cell surface wrinkling at 8 times MIC by SEM analysis; type: functional, organism-based
[13] = test system: Enterococcus faecalis; experiment: Antibacterial activity against Enterococcus faecalis ATCC29212 by CLSI based serial dilution method; type: functional
[14] = test system: Staphylococcus aureus; experiment: Antibacterial activity against Staphylococcus aureus ATCC29213 assessed as cell surface wrinkling at 8 times MIC by SEM analysis; type: functional, organism-based
[15] = test system: Staphylococcus aureus; experiment: Antibacterial activity against Staphylococcus aureus ATCC25923 upto 32 ug/ml incubated for 16 to 18 hrs in presence of cardiolipin; type: functional, organism-based; conditions: dose <= 32.0 µg/ml, time 16-18 hrs
[16] = test system: Staphylococcus aureus; experiment: Antibacterial activity against Staphylococcus aureus ATCC29213 assessed as cell surface disruption at 8 times MIC by SEM analysis; type: functional, organism-based
[17] = Toxicity in KM mouse assessed as histopathological abnormality in liver upto 40 mg/kg, ip measured for 24 hrs by H and E staining based analysis; type: organism-based; conditions: in vivo
[18] = test system: Escherichia coli; experiment: Antibacterial activity against Escherichia coli ATCC25922 by CLSI based serial dilution method; type: functional
[19] = test system: Staphylococcus aureus; experiment: Antibacterial activity against Staphylococcus aureus ATCC29213 infected in mouse model assessed as bacterial load reduction in abscesses at 5 mg/kg, sc measured after 24 hrs relative to control; type: functional; set-up: scale not given: the % may be the effect or the level left
[20] = test system: Staphylococcus aureus; experiment: Antibacterial activity against Staphylococcus aureus ATCC29213 in plasma pretreated plasma with compound for 6 hrs followed by bacterial infection into plasma; type: functional, organism-based
[21] = test system: Staphylococcus aureus; experiment: Antibacterial activity against Staphylococcus aureus ATCC29213 assessed as leakage of cell contents at 8 times MIC by SEM analysis; type: functional, organism-based
[22] = test system: Escherichia coli; experiment: Bactericidal activity against Escherichia coli ATCC25922 assessed as inhibition of bacterial regrowth at 8 times MIC incubated for 24 hrs by time-kill assay; type: functional, organism-based
[23] = test system: Escherichia coli; experiment: Bactericidal activity against Escherichia coli ATCC25922 at MIC incubated for 24 hrs by time-kill assay relative to control; type: functional
[24] = test system: Staphylococcus aureus; experiment: Antibacterial activity against Staphylococcus aureus ATCC29213 infected in mouse model assessed as reduction in abscesses size at 5 to 10 mg/kg, sc measured after 24 hrs; type: functional, organism-based; conditions: dose 5-10 mg/kg
[25] = test system: Staphylococcus aureus; experiment: Antibacterial activity against Staphylococcus aureus ATCC29213 infected in mouse model assessed as bacterial load in abscesses at 5 mg/kg, sc measured after 24 hrs; type: functional
[26] = test system: Staphylococcus aureus; experiment: Antibacterial activity against Staphylococcus aureus ATCC29213 infected in mouse model assessed as bacterial concentration at 10 mg/kg, sc measured after 24 hrs (reference value: 10^10.13 CFU/g); type: functional
[27] = Cytotoxicity against HUVEC cells assessed as cell viability at 32 ug/ml incubated for 24 hrs by CCK8 assay relative to control; type: toxicity, cell-based; conditions: human, at 32 µg/mL, read-out: Activity
[28] = Toxicity in KM mouse assessed as damage in heart upto 40 mg/kg, ip measured for 24 hrs by H and E staining based analysis; type: organism-based; conditions: in vivo
[29] = test system: Escherichia coli; experiment: Bactericidal activity against Escherichia coli ATCC25922 incubated upto 24 hrs by time-kill assay; type: functional, organism-based
[30] = test system: Staphylococcus aureus; experiment: Antibacterial activity against Staphylococcus aureus ATCC29213 assessed as cell membrane damage incubated for 8 mins by SYTOX Green uptake assay; type: functional, organism-based
[31] = test system: Staphylococcus aureus; experiment: Bactericidal activity against Staphylococcus aureus ATCC29213 incubated upto 24 hrs by time-kill assay; type: functional, organism-based
[32] = Toxicity in KM mouse assessed as normal condition upto 40 mg/kg, ip measured for 24 hrs; type: organism-based; conditions: in vivo
[33] = Selectivity ratio of cytotoxicity against HUVEC cells for to MIC for Staphylococcus aureus ATCC29213; type: toxicity, cell-based; conditions: human
[34] = Hemolytic activity against rabbit RBC incubated for 1 hr by absorbance based assay; type: toxicity, cell-based, Oryctolagus cuniculus, Erythrocyte; conditions: rabbit red blood cells (erythrocytes)
[35] = test system: Escherichia coli; experiment: Antibacterial activity against Escherichia coli ATCC25922 assessed as cell membrane damage incubated for 8 mins by SYTOX Green uptake assay; type: functional, organism-based
[36] = test system: Staphylococcus aureus; experiment: Inhibition of antibiotic-resistance in Staphylococcus aureus ATCC29213 at 0.5 times of MIC incubated for 20 days; type: functional; conditions: time 20.0 day
[37] = Toxicity in KM mouse assessed as histopathological abnormality in kidney upto 40 mg/kg, ip measured for 24 hrs by H and E staining based analysis; type: organism-based; conditions: in vivo
[38] = Toxicity in KM mouse assessed as damage in liver upto 40 mg/kg, ip measured for 24 hrs by H and E staining based analysis; type: organism-based; conditions: in vivo
[39] = test system: Enterococcus; experiment: Antibacterial activity against vancomycin-resistant Enterococcus ATCC51299 by CLSI based serial dilution method; type: functional
[40] = test system: Staphylococcus aureus; experiment: Bactericidal activity against Staphylococcus aureus ATCC29213 at 8 times MIC incubated for 24 hrs by time-kill assay relative to control; type: functional
[41] = Selectivity index, ratio of HC50 against rabbit RBC for to MIC for Escherichia coli ATCC25922; type: toxicity; conditions: rabbit red blood cells, pooled result: one value given for 6 cell lines, strains, targets or settings, read-out: Selectivity Index
[42] = test system: Staphylococcus aureus; experiment: Antibacterial activity against Staphylococcus aureus ATCC29213 infected in mouse model assessed as bacterial load in abscesses at 10 mg/kg, sc measured after 24 hrs; type: functional
[43] = test system: Enterococcus faecalis; experiment: Antibacterial activity against Enterococcus faecalis ATCC29212 assessed as cell surface disruption at 8 times MIC by SEM analysis; type: functional, organism-based

## CCCCCCCNC(=O)C[N+](C)(C)CCCCOc1cc(C)ccc1C(C)C.[Br-]
[1]
  Activity: Active
[2]
  Activity: Non-Toxic
[3]
  MIC: 0.5 µg/mL
[4]
  Activity: inactive
[5]
  Activity: Active
[6]
  Activity: 100%
[7]
  Activity: Non-Toxic
[8]
  Activity: Active
[9]
  Activity: Active
[10]
  Activity: Non-Toxic
[11]
  Activity: Active
[12]
  Activity: Active
[13]
  MIC: 1 µg/mL
[14]
  Activity: Active
[15]
  Activity: inactive
[16]
  Activity: Active
[17]
  Activity: Non-Toxic
[18]
  MIC: 2 µg/mL
[19]
  Activity: 99.27%
[20]
  Activity: Active
[21]
  Activity: Active
[22]
  inhibition: Active
[23]
  Activity: 100%
[24]
  Activity: Active
[25]
  Activity: 2.14 log10CFU/g
[26]
  Activity: ~1 10^7.67CFU/g
[27]
  viability at 24 h, 32 ug/ml: 68.7%
[28]
  Activity: Non-Toxic
[29]
  Activity: Dose-Dependent Effect
[30]
  Activity: Dose-Dependent Effect
[31]
  Activity: Dose-Dependent Effect
[32]
  Activity: Non-Toxic
[33]
  selectivity ratio: 64
[34]
  HC50 at 1 h: 472 µg/mL
[35]
  Activity: Dose-Dependent Effect
[36]
  inhibition: Active
[37]
  Activity: Non-Toxic
[38]
  Activity: Non-Toxic
[39]
  MIC: 2 µg/mL
[40]
  Activity: >99.9%
[41]
  selectivity ratio: 59
[42]
  Activity: 2.46 log10CFU/g
[43]
  Activity: Active
